The results in this text go back to patent publication US7173040B2, “Farnesyl transferase inhibiting 6-[(substituted phenyl)methyl]-quinoline and quinazoline derinazoline derivatives” (Janssen Pharmaceutica N.V., priority 2000, dated 2007).

As to `Cl.Cn1cncc1C(O)(c1ccc(C=O)cc1)c1ccc2[nH]c(=O)cc(-c3cccc(Cl)c3)c2c1` (racemic), the melting point (commonly the temperature of the solid-liquid transition) was greater than 260 °C. The same measure for `Cl.Cn1cncc1C(O)(c1ccc(C(=O)O)cc1)c1ccc2[nH]c(=O)cc(-c3cccc(Cl)c3)c2c1.O` (racemic) (hydrate or solvate): greater than 300 °C; for `Cn1cncc1C(O)(c1ccc([N+](=O)[O-])cc1)c1ccc2c(c1)c(-c1cccc(Cl)c1)cc(=O)n2C` (racemic) [Example B4, (±)-4-(3-chlorophenyl)-6-[hydroxy(1-methyl-1H-imidazol-5-yl)(4-nitrophenyl)methyl]-1-methyl-2(1H)-quinolinone]: 230 °C; for `Cn1cncc1C(O)(c1ccc(C=O)cc1)c1ccc2c(c1)c(-c1cccc(Cl)c1)cc(=O)n2C` (racemic) [Example B6, (±)-4-[[4-(3-chlorophenyl)-1,2-dihydro-1-methyl-2-oxo-6-quinolinyl]hydroxy(1-methyl-1H-imidazol-5-yl)methyl]benzaldehyde]: 208 °C. Regarding `Cn1cncc1C(N)(c1ccc([N+](=O)[O-])cc1)c1ccc2c(c1)c(-c1cccc(Cl)c1)cc(=O)n2C` (racemic) [Example B8b, (±)-6-[amino(1-methyl-1H-imidazol-5-yl)(4-nitrophenyl)methyl]-4-(3-chlorophenyl)-1-methyl-2(1H)-quinolinone], the melting point was found to be 258 °C. The same measure for `Cn1cncc1C(O)(c1ccc(CO)cc1)c1ccc2c(c1)c(-c1cccc(Cl)c1)cc(=O)n2C` (racemic) [Example B9, (±)-4-(3-chlorophenyl)-6-[hydroxy[4-(hydroxymethyl)phenyl](1-methyl-1H-imidazol-5-yl)methyl]-1-methyl-2(1H)-quinolinone]: 273 °C; for `Cn1cncc1C(O)(c1ccc(-c2ccc(Cl)cc2)cc1)c1ccc2c(c1)c(-c1cccc(Cl)c1)cc(=O)n2C` (racemic) [Example B10, (±)-6-[(4′-chloro[1,1′-biphenyl]-4-yl)hydroxy(1-methyl-1H-imidazol-5-yl)methyl]-4-(3-chlorophenyl)-1-methyl-2(1H)-quinolinone]: 236 °C; for `CC(O)c1ccc(C(O)(c2ccc3c(c2)c(-c2cccc(Cl)c2)cc(=O)n3C)c2cncn2C)cc1` (racemic) [Example B17, (±)-4-(3-chlorophenyl)-6-[hydroxy[4-(1-hydroxyethyl)phenyl](1-methyl-1H-imidazol-5-yl)methyl]-1-methyl-2(1H)-quinolinone]: 181 °C. The result for `Cn1cncc1C(O)(c1ccc(C(=O)O)cc1)c1ccc2c(c1)c(-c1cccc(Cl)c1)cc(=O)n2C` (racemic) [Example B19, (±)-4-[[4-(3-chlorophenyl)-1,2-dihydro-1-methyl-2-oxo-6-quinolinyl]hydroxy(1-methyl-1H-imidazol-5-yl)methyl]benzoic acid] reads greater than 260 °C; that for `Cn1cncc1C(O)(c1ccc(C#N)cc1)c1ccc2c(c1)c(-c1cccc(Cl)c1)cc(=O)n2C` (racemic) [Example B41b, (±)-4-[[4-(3-chlorophenyl)-1,2-dihydro-1-methyl-2-oxo-6-quinolinyl]hydroxy(1-methyl-1H-imidazol-5yl)methyl]benzonitrile], 210 °C; that for `Cn1cnnc1C(c1ccc(Cl)cc1)c1ccc2c(c1)c(-c1cccc(Cl)c1)cc(=O)n2C` (stereo not shown) [Example B7, 4-(3-chlorophenyl)-6-[(4-chlorophenyl)(4-methyl-4H-1,2,4-triazol-3-yl)methyl]-1-methyl-2(1H)-quinolinone], 153 °C.

As for `Cn1cnnc1C(O)(c1ccc(Cl)cc1)c1ccc2c(c1)c(-c1cccc(Cl)c1)cc(=O)n2C` (stereo not shown) [Example B13, 4-(3-chlorophenyl)-6-[(4-chlorophenyl)hydroxy(4-methyl-4H-1,2,4-triazol-3-yl)methyl]-1-methyl-2(1H)-quinolinone], the melting point was 182 °C.

As for `Cn1cnnc1C(c1ccc(Cl)cc1)c1ccc2c(c1)c(-c1cccc(Cl)c1)nc1nnnn12` (stereo not shown) [Example B20, 5-(3-chlorophenyl)-7-[(4-chlorophenyl)(4methyl-4H-1,2,4-triazol-3-yl)methyl]-tetrazolo[1,5-a]quinazoline], the melting point was 217 °C. For `Cn1cnnc1C(N)(c1ccc(Cl)cc1)c1ccc2c(c1)c(-c1cccc(Cl)c1)cc(=O)n2C` (stereo not shown) [Example B22b, 6-[amino(4-chlorophenyl)(4-methyl-4H-1,2,4-triazol-3-yl)methyl]-4-(3-chlorophenyl)-1-methyl-2(1H)-quinolinone], the melting point was 210 °C. On to `Cn1cnnc1C(c1ccc(I)cc1)c1ccc2c(c1)c(-c1cccc(Cl)c1)nc1nnnn12` (stereo not shown) [Example B26b, tetrazolo[1,5-a]quinazoline, 5-(3-chlorophenyl)-7-[(4-iodophenyl)(4methyl-4H-1,2,4-triazol-3-yl)methyl]-], for which the melting point was found to be 150 °C. The compound `CSc1nnc(C(O)(c2ccc(Cl)cc2)c2ccc3c(c2)c(-c2cccc(Cl)c2)nc2nnnn23)n1C` (stereo not drawn) [Example B28b, 5-(3-chlorophenyl)-α-(4-chlorophenyl)-α-[4-methyl-5-(methylthio)-4H-1,2,4-triazol-3-yl]-tetrazolo[1,5-a]quinazoline-7-methanol] gave a melting point of 65 °C. The same measure for `CSc1nnc(C(N)(c2ccc(Cl)cc2)c2ccc3c(c2)c(-c2cccc(Cl)c2)nc2nnnn23)n1C` (stereo not drawn) [Example B28d, 5-(3-chlorophenyl)-α-(4-chlorophenyl)-α-[4-methyl-5-(methylthio)-4H-1,2,4-triazol-3-yl]-tetrazolo[1,5-a]quinazoline-7-methanamine]: 150 °C.

On to `Cn1cnnc1C(N)(c1ccc(Cl)cc1)c1ccc2c(c1)c(-c1cccc(Cl)c1)nc1nnnn12` (stereo not drawn) [Example B28e, 5-(3-chlorophenyl)-α-(4-chlorophenyl)-α-(4-methyl-4H-1,2,4-triazol-3-yl)-tetrazolo[1,5-a]quinazoline-7-methanamine], for which the melting point is 220 °C. The result for `Cn1cnnc1C(N)(c1ccc(I)cc1)c1ccc2c(c1)c(-c1cccc(Cl)c1)nc1nnnn12` (stereo not drawn) [Example B29c, 5-(3-chlorophenyl)-α-(4-iodophenyl)-α-(4-methyl-4H-1,2,4-triazol-3-yl)-tetrazolo[1,5-a]quinazoline-7-methanamine] reads 238 °C; that for `Cn1cnnc1C(N)(c1ccc(C#N)cc1)c1ccc2c(c1)c(-c1cccc(Cl)c1)nc1nnnn12` (stereo not shown) [Example B29d, 4-[amino[5-(3-chlorophenyl)tetrazolo[1,5-a]quinazolin-7-yl](4-methyl-4H-1,2,4-triazol-3-yl)methyl]-benzonitrile], 194 °C; that for `Cn1cncc1C(O)(c1ccc2c(c1)OCCO2)c1ccc2[nH]c(=O)nc(-c3cccc(Cl)c3)c2c1` (stereo not shown) [Example B30, 4-(3-chlorophenyl)-6-[(2,3-dihydro-1,4-benzodioxin-6-yl)hydroxy(1-methyl-1H-imidazol-5-yl)methyl]-2(1H)-quinazolinone], greater than 260 °C. The same measure for `Cn1cnnc1C(CCl)(c1ccc(Cl)cc1)c1ccc2c(c1)c(-c1cccc(Cl)c1)cc(=O)n2C` (stereo not shown) [Example B31, 6-[2-chloro-1-(4-chlorophenyl)-1-(4-methyl-4H-1,2,4-triazol-3-yl)ethyl]-4-(3-chlorophenyl)-1-methyl-2(1H)-quinolinone]: 260 °C.
